In one assay the target is CDK9/Cyclin T1 complex (Homo sapiens, UniProt P50750). As to the kind of experiment: CDK9 kinase inhibition assay (Caliper/LabChip EZ Reader).
The next assay has as its system COV318 cells. As to the kind of experiment: Inhibition of cell proliferation (CyQUANT Direct), COV318. It is filed as cell-based, human. As to conditions: COV318, 72-hour. On the procedure:
(§1) HCC70 and MB453 cells are cell lines derived from human triple negative breast cancer COV318 and COV504 cells are cell lines derived from human ovarian cancer. Representative compounds of the invention were tested at different concentrations (from 4 μM to 126.4 pM; 0.5 log serial dilutions) for their ability to inhibit the proliferation of each of these cell lines. Known CDK inhibitors dinaciclib or N-((1S,3R)-3-((5-chloro-4-(1H-indol-3-yl) pyrimidin-2-yl)amino)cyclohexyl)-5-((E)-4-(dimethylamino)but-2-enamido)picolinamide and triptolide were used as positive controls. Cells were seeded at approximately 2,000 cells/well and grown in ATCC-formulated RPMI-1640 Medium (ATCC 30-2001)+10% FBS. The cells were cultured at 37° C. in a humidified chamber in the presence of 5% CO2. Proliferation assays were conducted over a 72-hour time period. CyQUANT® Direct Cell Proliferation Assay (Life Technologies, Chicago, Ill. USA) was used to assess the anti-proliferative effects of the compounds following manufacturer's directions and utilizing the reagents supplied with the CyQUANT® Direct Cell kit.

For a further assay, the system named is COV504 cells. The assay can be described thus: Inhibition of cell proliferation (CyQUANT Direct), COV504. It is filed as cell-based, human. As to conditions: COV504, 72-hour. On the procedure:
as §1

Assay [1] deals with CDK12 (aa686-1082)/Cyclin K complex (Homo sapiens, UniProt Q9NYV4). As to the kind of experiment: CDK12 kinase inhibition assay (Caliper/LabChip EZ Reader).
CDK12 (aa686-1082)/Cyclin K complex, sequence (Q9NYV4 686-1082): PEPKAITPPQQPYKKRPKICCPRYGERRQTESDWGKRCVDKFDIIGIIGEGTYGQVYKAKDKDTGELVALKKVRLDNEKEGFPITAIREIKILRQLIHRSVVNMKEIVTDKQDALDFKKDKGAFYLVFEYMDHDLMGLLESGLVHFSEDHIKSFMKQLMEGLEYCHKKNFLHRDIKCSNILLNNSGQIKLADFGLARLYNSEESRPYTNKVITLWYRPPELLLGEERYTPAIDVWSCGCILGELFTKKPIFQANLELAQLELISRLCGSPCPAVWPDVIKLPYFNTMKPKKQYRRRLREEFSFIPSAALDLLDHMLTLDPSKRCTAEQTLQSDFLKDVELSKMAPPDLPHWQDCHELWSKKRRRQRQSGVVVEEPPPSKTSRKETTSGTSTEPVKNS
CDK12 (aa686-1082)/Cyclin K complex, sequence (O75909 whole entry partner, the tested form may be a part): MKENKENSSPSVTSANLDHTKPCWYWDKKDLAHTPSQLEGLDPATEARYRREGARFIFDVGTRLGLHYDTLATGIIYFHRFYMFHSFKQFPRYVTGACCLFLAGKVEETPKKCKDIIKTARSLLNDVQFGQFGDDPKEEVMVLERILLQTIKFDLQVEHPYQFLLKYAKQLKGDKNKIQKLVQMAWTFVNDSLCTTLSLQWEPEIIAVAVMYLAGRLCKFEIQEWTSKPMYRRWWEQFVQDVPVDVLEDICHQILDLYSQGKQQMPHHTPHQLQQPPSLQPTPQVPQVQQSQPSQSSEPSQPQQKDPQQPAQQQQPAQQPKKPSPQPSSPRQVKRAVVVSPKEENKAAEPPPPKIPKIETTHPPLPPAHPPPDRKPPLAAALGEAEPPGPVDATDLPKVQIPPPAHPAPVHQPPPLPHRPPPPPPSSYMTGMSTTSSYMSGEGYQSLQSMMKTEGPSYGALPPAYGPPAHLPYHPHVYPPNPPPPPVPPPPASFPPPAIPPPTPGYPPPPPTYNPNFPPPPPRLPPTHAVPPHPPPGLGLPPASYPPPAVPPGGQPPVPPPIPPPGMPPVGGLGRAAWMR
Description: Compounds described herein were assayed for inhibition of CDK7, CDK9, CDK12, and CDK2 activity at Biortus Biosciences (Jiangyin, Jiangsu Province, P.R. of China) using kinase assays for each CDK developed with a Caliper/LabChip EZ Reader (Perkin Elmer, Waltham, Mass.).
Furthermore, the CDK9 inhibition assay used CDK9/Cyclin T1 complex (8 nM) and “5-FAM-CDK9tide” peptide substrate (2 μM, synthesized fluorophore-labeled peptide with the following sequence: 5-FAM-GSRTPMY-NH2 (SEQ ID NO:2) where 5-FAM is defined above and NH2 signifies a C-terminal amide) with 10 mM MgCl2 in the buffer composition listed above. The CDK12 inhibition assay used CDK12 (aa686-1082)/Cyclin K complex (50 nM) and “5-FAM-CDK9tide” (2 μM) as defined above, with 2 mM MgCl2 in the buffer composition above. Additionally, the CDK2 inhibition assay used CDK2/Cyclin E1 complex (0.5 nM) and “5-FAM-CDK7tide” (2 μM; defined above) with 2 mM MgCl2 in the buffer composition above.
The incubation period at 27° C. for each CDK inhibition assay was chosen such that the fraction of phosphorylated peptide product produced in each assay, relative to the total peptide concentration, was approximately 20% (±5%) for the uninhibited kinase (35 min. for CDK7, 35 min. for CDK2, 3 hr. for CDK12, 15 min. for CDK9).
The target in another assay is CDK2/Cyclin E1 complex (Homo sapiens, UniProt P24941). As to the kind of experiment: CDK2 kinase inhibition assay (Caliper/LabChip EZ Reader).
A further assay deals with MB453 cells. As to the kind of experiment: Inhibition of cell proliferation (CyQUANT Direct), MB453. It is filed as cell-based, human. As to conditions: MB453, 72-hour. On the procedure:
as §1

Assay [2] has as its target CDK7/Cyclin H/MAT1 complex (Homo sapiens, UniProt P50613). The assay can be described thus: CDK7 kinase inhibition assay (Caliper/LabChip EZ Reader).
Another assay relates to HCC70 cells. The assay can be described thus: Inhibition of cell proliferation (CyQUANT Direct), HCC70. Type of assay: cell-based, human. As to conditions: HCC70, 72-hour. The procedure: as §1

Where two headings read alike, the source gives them in different places.

CDK7/Cyclin H/MAT1 complex, sequence (P50613 whole entry): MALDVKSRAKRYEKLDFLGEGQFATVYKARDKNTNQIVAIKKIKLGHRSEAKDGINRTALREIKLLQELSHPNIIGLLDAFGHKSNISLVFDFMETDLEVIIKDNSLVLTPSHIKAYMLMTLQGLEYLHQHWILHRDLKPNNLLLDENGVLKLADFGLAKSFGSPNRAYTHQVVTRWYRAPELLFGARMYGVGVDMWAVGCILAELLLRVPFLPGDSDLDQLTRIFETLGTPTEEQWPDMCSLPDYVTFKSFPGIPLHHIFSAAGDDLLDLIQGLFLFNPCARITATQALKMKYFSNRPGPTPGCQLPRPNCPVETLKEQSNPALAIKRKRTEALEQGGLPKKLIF
CDK7/Cyclin H/MAT1 complex, sequence (P51946 whole entry partner): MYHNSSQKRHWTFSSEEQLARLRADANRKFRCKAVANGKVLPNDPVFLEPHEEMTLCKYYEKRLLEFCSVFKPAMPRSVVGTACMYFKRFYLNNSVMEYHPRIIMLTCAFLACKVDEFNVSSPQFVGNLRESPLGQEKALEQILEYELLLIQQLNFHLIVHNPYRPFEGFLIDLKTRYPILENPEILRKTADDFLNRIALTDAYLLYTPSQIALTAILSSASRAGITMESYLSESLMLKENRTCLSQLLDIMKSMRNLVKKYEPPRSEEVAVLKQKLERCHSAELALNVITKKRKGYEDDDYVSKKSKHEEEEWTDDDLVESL
CDK7/Cyclin H/MAT1 complex, sequence (P51948 whole entry partner): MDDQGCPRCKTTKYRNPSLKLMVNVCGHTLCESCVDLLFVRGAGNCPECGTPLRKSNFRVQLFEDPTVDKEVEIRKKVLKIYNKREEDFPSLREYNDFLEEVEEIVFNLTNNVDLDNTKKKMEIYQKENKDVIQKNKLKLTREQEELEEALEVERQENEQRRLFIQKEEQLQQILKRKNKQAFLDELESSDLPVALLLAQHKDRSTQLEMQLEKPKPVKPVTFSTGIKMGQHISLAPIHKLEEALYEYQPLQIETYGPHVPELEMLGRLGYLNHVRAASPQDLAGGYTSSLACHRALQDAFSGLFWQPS
CDK9/Cyclin T1 complex, sequence (P50750 whole entry): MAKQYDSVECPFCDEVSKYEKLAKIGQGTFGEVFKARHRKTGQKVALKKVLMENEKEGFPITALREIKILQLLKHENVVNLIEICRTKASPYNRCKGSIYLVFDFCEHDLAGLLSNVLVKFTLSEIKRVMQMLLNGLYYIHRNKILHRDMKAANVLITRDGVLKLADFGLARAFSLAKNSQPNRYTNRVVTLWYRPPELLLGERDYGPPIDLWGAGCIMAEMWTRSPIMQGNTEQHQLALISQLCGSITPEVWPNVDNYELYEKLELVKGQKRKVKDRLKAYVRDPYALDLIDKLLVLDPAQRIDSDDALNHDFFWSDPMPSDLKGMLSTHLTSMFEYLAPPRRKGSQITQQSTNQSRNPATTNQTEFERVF
CDK9/Cyclin T1 complex, sequence (O60563 whole entry partner): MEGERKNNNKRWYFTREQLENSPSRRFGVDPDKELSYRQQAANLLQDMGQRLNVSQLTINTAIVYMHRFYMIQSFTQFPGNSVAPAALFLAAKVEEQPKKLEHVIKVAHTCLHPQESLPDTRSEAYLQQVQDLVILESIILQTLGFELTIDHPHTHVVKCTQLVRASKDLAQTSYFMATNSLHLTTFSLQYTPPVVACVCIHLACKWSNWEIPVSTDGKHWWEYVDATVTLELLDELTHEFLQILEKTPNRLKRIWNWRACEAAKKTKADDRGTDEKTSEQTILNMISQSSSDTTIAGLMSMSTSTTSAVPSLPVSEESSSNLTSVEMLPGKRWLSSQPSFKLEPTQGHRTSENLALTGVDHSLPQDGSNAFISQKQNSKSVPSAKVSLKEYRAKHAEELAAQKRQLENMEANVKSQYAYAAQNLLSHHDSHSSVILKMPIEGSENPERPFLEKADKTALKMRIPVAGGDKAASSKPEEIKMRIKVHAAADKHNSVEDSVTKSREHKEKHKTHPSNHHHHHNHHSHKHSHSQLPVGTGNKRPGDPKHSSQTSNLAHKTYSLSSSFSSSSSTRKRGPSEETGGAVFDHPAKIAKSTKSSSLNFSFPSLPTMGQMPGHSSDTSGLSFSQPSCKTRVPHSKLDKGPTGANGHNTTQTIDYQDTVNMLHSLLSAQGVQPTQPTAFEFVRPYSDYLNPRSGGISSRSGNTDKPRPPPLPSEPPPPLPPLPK

For `Cc1noc(C)c1-c1ccc2c(-c3nc(N[C@@H]4CC[C@@H](C)NC4)ncc3C(F)(F)F)c[nH]c2n1` [Compound 125, 4-[6-(3,5-dimethylisoxazol-4-yl)-1H-pyrrolo-[2,3-b]-pyridin-3-yl]-N-[(3R,6R)-6-methyl-3-piperidyl]-5-(trifluoromethyl)pyrimidin-2-amine], the IC50 at CDK9/Cyclin T1 complex was greater than 500 nM; in the assay with COV318 cells (Homo sapiens), 100 to 500 nM; with COV504 cells (Homo sapiens), less than 100 nM; in assay [1] it was greater than 500 nM; on CDK2/Cyclin E1 complex, greater than 500 nM; in the assay with MB453 cells (Homo sapiens), less than 100 nM. In addition, the IC50 in assay [2] was less than 30 nM; in the assay on HCC70 cells (Homo sapiens), 100 to 500 nM.

In the case of `Cc1nnc(C)n1-c1ccc2c(-c3nc(N[C@H]4CCCNC4)ncc3C(F)(F)F)c[nH]c2n1` [Compound 140, 4-[6-(3,5-dimethyl-1,2,4-triazol-4-yl)-1H-pyrrolo[2,3-b]pyridin-3-yl]-N-[(3S)-3-piperidyl]-5-(trifluoromethyl)pyrimidin-2-amine], the IC50 against CDK9/Cyclin T1 complex is greater than 500 nM; in the assay with COV318 cells (Homo sapiens), greater than 1000 nM; in the assay with COV504 cells (Homo sapiens), 100 to 500 nM; in assay [1], greater than 500 nM; at CDK2/Cyclin E1 complex, greater than 500 nM; with MB453 cells (Homo sapiens), 500 to 1000 nM. The results for the IC50 (in assay [2]; with HCC70 cells (Homo sapiens)) were less than 30 nM and greater than 1000 nM, respectively.

`FC(F)(F)c1cnc(N[C@H]2CCCNC2)nc1-c1c[nH]c2cc(-c3cnco3)ccc12` [Compound 111, (S)-4-(6-(oxazol-5-yl)-1H-indol-3-yl)-N-(piperidin-3-yl)-5-(trifluoromethyl)pyrimidin-2-amine]: the IC50 against CDK9/Cyclin T1 complex was greater than 500 nM; with COV318 cells (Homo sapiens), 100 to 500 nM; in the assay with COV504 cells (Homo sapiens), less than 100 nM; in assay [1], greater than 500 nM; against CDK2/Cyclin E1 complex, greater than 500 nM; in the assay with MB453 cells (Homo sapiens) it was 100 to 500 nM. For the same compound, the results for the IC50 (in assay [2]; in the assay with HCC70 cells (Homo sapiens)) were less than 30 nM and 100 to 500 nM, respectively.

Turning to `Cc1noc(C)c1-c1ccc2c(-c3nc(N[C@@H]4CNC[C@H](O)C4)ncc3C(F)(F)F)c[nH]c2n1` [Compound 133, (3R,5S)-5-[[4-[6-(3,5-dimethylisoxazol-4-yl)-1H-pyrrolo[2,3-b]pyridin-3-yl]-5-(trifluoromethyl)pyrimidin-2-yl]amino]piperidin-3-ol], the IC50 at CDK9/Cyclin T1 complex was greater than 500 nM; in the assay on COV318 cells (Homo sapiens), 100 to 500 nM; with COV504 cells (Homo sapiens), less than 100 nM; in assay [1], greater than 500 nM; on CDK2/Cyclin E1 complex it was greater than 500 nM; with MB453 cells (Homo sapiens) it was less than 100 nM. Further, the IC50 was less than 30 nM in assay [2] and less than 100 nM in the assay on HCC70 cells (Homo sapiens).

Take `Cc1nocc1-c1ccc2c(-c3nc(N[C@H]4CC[C@H](C)NC4)ncc3C(F)(F)F)c[nH]c2n1` [Compound 156, 4-[6-(3-methylisoxazol-4-yl)-1H-pyrrolo[2,3-b]pyridin-3-yl]-N-[(3S,6S)-6-methyl-3-piperidyl]-5-(trifluoromethyl)pyrimidin-2-amine]: the IC50 on CDK9/Cyclin T1 complex is greater than 500 nM; in the assay with COV318 cells (Homo sapiens), greater than 1000 nM; with COV504 cells (Homo sapiens) it was 100 to 500 nM; in assay [1], greater than 500 nM; at CDK2/Cyclin E1 complex it was greater than 500 nM; with MB453 cells (Homo sapiens), 100 to 500 nM. Besides, the IC50 was less than 30 nM in assay [2] and 500 to 1000 nM in the assay on HCC70 cells (Homo sapiens).

In the case of `Cn1nncc1-c1ccc2c(-c3nc(N[C@H]4CCCNC4)ncc3C(F)(F)F)c[nH]c2c1` [Compound 126], the IC50 against CDK9/Cyclin T1 complex is greater than 500 nM; with COV318 cells (Homo sapiens), 100 to 500 nM; in the assay with COV504 cells (Homo sapiens), less than 100 nM; in assay [1] it was greater than 500 nM; against CDK2/Cyclin E1 complex, greater than 500 nM; in the assay with MB453 cells (Homo sapiens), less than 100 nM. The IC50 in assay [2] was less than 30 nM; in the assay on HCC70 cells (Homo sapiens), less than 100 nM.

For the compound `Cc1nc(-c2ccc3c(-c4nc(N[C@@H]5CC[C@@H](C)NC5)ncc4C(F)(F)F)c[nH]c3n2)no1` [Compound 163, 4-[6-(5-methyl-1,2,4-oxadiazol-3-yl)-1H-pyrrolo[2,3-b]pyridin-3-yl]-N-[(3R, 6R)-6-methyl-3-piperidyl]-5-(trifluoromethyl)pyrimidin-2-amine], the half-inhibitory concentration (IC50) is greater than 500 nM against CDK9/Cyclin T1 complex; greater than 1000 nM with COV318 cells (Homo sapiens); less than 100 nM in the assay on COV504 cells (Homo sapiens); greater than 500 nM in assay [1]; greater than 500 nM at CDK2/Cyclin E1 complex; less than 100 nM with MB453 cells (Homo sapiens). Further, the values for the IC50 (in assay [2]; in the assay with HCC70 cells (Homo sapiens)) were less than 30 nM and less than 100 nM, respectively.

Take `Cc1nocc1-c1ccc2c(-c3nc(N[C@H]4CCC(C)(C)NC4)ncc3C(F)(F)F)n[nH]c2n1` [Compound 160, (S)—N-(6,6-dimethylpiperidin-3-yl)-4-(6-(3-methylisoxazol-4-yl)-1H-pyrazolo[3,4-b]pyridin-3-yl)-5-(trifluoromethyl)pyrimidin-2-amine]: the IC50 at CDK9/Cyclin T1 complex was greater than 500 nM; in the assay on COV318 cells (Homo sapiens) it was greater than 1000 nM; with COV504 cells (Homo sapiens), 100 to 500 nM; in assay [1], greater than 500 nM; against CDK2/Cyclin E1 complex, greater than 500 nM; in the assay on MB453 cells (Homo sapiens), 100 to 500 nM. Further, the IC50 was less than 30 nM in assay [2] and greater than 1000 nM with HCC70 cells (Homo sapiens).

Turning to “(S)-tert-butyl 3-((4-(6-(3,5-dimethylisothiazol-4-yl)-1H-pyrrolo[2,3-b]pyridin-3-yl)-5-(trifluoromethyl)pyrimidin-2-yl)amino)piperidine-1-carboxylate [Compound 166]”, the IC50 on CDK9/Cyclin T1 complex (read-out: CDK9 IC50, CDK9/Cyclin T1 8 nM, ATP 2 mM, 15 min at 27° C.) was greater than 500 nM; in the assay on COV318 cells it was less than 100 nM; with COV504 cells, less than 100 nM; in assay [1] (read-out: CDK12 IC50, CDK12 (aa686-1082)/Cyclin K 50 nM, ATP 2 mM, 3 hr at 27° C.), greater than 500 nM; on CDK2/Cyclin E1 complex (read-out: CDK2 IC50, CDK2/Cyclin E1 0.5 nM, ATP 2 mM, 35 min at 27° C.), greater than 500 nM; in the assay on MB453 cells, less than 100 nM. The concentration for half-maximal inhibition (IC50) is less than 30 nM in assay [2] (read-out: CDK7 IC50, CDK7/Cyclin H/MAT1 6 nM, ATP 2 mM, 35 min at 27° C.) and less than 100 nM in the assay with HCC70 cells.

`FC(F)(F)c1cnc(N[C@H]2CCCNC2)nc1-c1c[nH]c2nc(-c3nccs3)ccc12` [Compound 108]: the IC50 against CDK9/Cyclin T1 complex is greater than 500 nM; with COV318 cells (Homo sapiens), less than 100 nM; in the assay on COV504 cells (Homo sapiens), less than 100 nM; in assay [1], greater than 500 nM; at CDK2/Cyclin E1 complex, greater than 500 nM; with MB453 cells (Homo sapiens) it was less than 100 nM. Besides, the IC50 in assay [2] was less than 30 nM; in the assay on HCC70 cells (Homo sapiens) it was less than 100 nM.

For `Cc1noc(C)c1-c1ccc2c(-c3nc(N[C@H]4CCC(C)(C)NC4)ncc3C(F)(F)F)n[nH]c2n1` [Compound 144], the IC50 on CDK9/Cyclin T1 complex is greater than 500 nM; in the assay on COV318 cells (Homo sapiens) it was greater than 1000 nM; in the assay on COV504 cells (Homo sapiens), less than 100 nM; in assay [1], greater than 500 nM; at CDK2/Cyclin E1 complex it was greater than 500 nM; in the assay with MB453 cells (Homo sapiens) it was less than 100 nM. Also, the IC50 is less than 30 nM in assay [2] and less than 100 nM with HCC70 cells (Homo sapiens).

For the compound `CO[C@@H]1CCNC[C@H]1Nc1ncc(C(F)(F)F)c(-c2c[nH]c3nc(-c4c(C)noc4C)ccc23)n1` (single isomer, unassigned) [Compound 117], the IC50 is greater than 500 nM against CDK9/Cyclin T1 complex; 500 to 1000 nM with COV318 cells (Homo sapiens); less than 100 nM in the assay with COV504 cells (Homo sapiens); greater than 500 nM in assay [1]; greater than 500 nM against CDK2/Cyclin E1 complex; less than 100 nM in the assay on MB453 cells (Homo sapiens). Moreover, the IC50 is less than 30 nM in assay [2] and 100 to 500 nM in the assay with HCC70 cells (Homo sapiens).

As to `Cc1noc(C)c1-c1ccc2c(-c3nc(N[C@@H]4CNC[C@H](C(=O)N(C)C)C4)ncc3C(F)(F)F)c[nH]c2c1` [Compound 112, (3R,5S)-5-[[4-[6-(3,5-dimethylisoxazol-4-yl)-1H-indol-3-yl]-5-(trifluoromethyl)pyrimidin-2-yl]-amino]-N, N-dimethyl-piperidine-3-carboxamide], the IC50 against CDK9/Cyclin T1 complex is greater than 500 nM; with COV318 cells (Homo sapiens), greater than 1000 nM; with COV504 cells (Homo sapiens) it was 100 to 500 nM; in assay [1], greater than 500 nM; against CDK2/Cyclin E1 complex, greater than 500 nM; with MB453 cells (Homo sapiens) it was 100 to 500 nM. The concentration for half-maximal inhibition (IC50) was less than 30 nM in assay [2] and 100 to 500 nM in the assay on HCC70 cells (Homo sapiens).

Broadly, the IC50 is the concentration that inhibits the measured activity by half.

For the origin of these results see patent publication US11311542B2, “Inhibitors of cyclin dependent kinase 7 (CDK7)” (Syros Pharmaceuticals, Inc., priority 2018, dated 2022).
